Source: patent US20110182909A1, “Glufosfamide combination therapy” (priority 2004, published 2011)
Read-outs that look alike come from different tables or passages of the source.

Tests used:
[1] = mesna given concomitantly with ifosfamide; cited from earlier work
[2] = test system: Ramos cells (Burkitt's lymphoma); test: Alamar Blue cell proliferation assay (3 days); format: cell-based; conditions: for IC50: single agent; for Cell proliferation as % control: 3 days
Method: Ramos cells lines (Burkitt's lymphoma) were obtained from the American Type Culture Collection (ATCC, Rockville, Md.). All cell lines were cultured in Dulbecco's modified Eagle's medium supplemented with 10% fetal calf serum, sodium pyruvate, nonessential amino acids, L-glutamine, vitamins, and antibiotics. Cells were maintained in a humidified incubator containing 5% CO2, 21% O2, at 37° C. All chemical reagents were purchased from Sigma Chemical Co. (St. Louis, Mo.) unless otherwise specified. Glufosfamide was provided directly by Threshold Pharmaceuticals and reconstituted in PBS freshly for each study.
To determine the effect of the combinations of the present invention on cell proliferation, the antiproliferative activity of these combinations was tested in a multi-well Alamar Blue based assay (at 3 days). Cell growth in the presence and absence of the test compound as tabulated in Table 1 was compared, as measured by a fluorescence plate reader at excitation 550 nm and emission 590 nm (see Biosource International Inc., Tech Application Notes, Use of Alainar Blue in the measurement of Cell Viability and Toxicity, Determining IC50). Ramos cells (Burkitt's lymphoma) (ATCC Catalog #CRL-1596), 3000 cells/well/180 μl) were seeded in a 96 well plate in RPMI medium (Invitrogen Corporation, Carlsbad, Calif.) and incubated overnight. After 24 hours, these plates were divided into Control group and 3 day treatment group.
A test compound (Glufosfamide, Carboplatin, or Etoposide) was added to each plate in the treatment groups at a concentration as tabulated in Tables 1A-1D (in 200 μl of medium, respectively). The cells were incubated for 3 days, followed by staining with AlamarBlue. In the Control group, AlamarBlue was added to the plate at (i) day 0 and (ii) day 3 and measured to establish the control reading. In all the groups, the capacity of the cells to proliferate was measured 17 hours after addition of AlamarBlue using a fluorescence plate reader at excitation 550 nm and emission 590 nm. […] Dose dependent percent inhibition was calculated using Graphpad Prism® (GraphPad Software, Inc.). These values were then applied against the Combination Index (CI) method as described by Chou and Talalay (Chou, T. C. and Talalay, P., Quantitative analysis of dose-effect relationships: The combined effects of multiple drugs or enzyme inhibitors. Adv. Enz. Regul. 22:27-55, 1984) using CalcuSyn software (Biosoft).
The effect of the combinations of the present invention on cell proliferation was determined by comparing cell growth in the presence and absence of the test combinations as tabulated in the tables below according to the procedure described above.

[3] = in contrast to ifosfamide; cited from earlier work

SMILES: O=S(=O)(O)CCS [mesna, mercaptoethane sulfonate sodium]
- patients who do not respond to mesna and develop hematuria [1]: up to 6%

SMILES: COc1cc([C@@H]2c3cc4c(cc3[C@@H](O[C@@H]3O[C@@H]5CO[C@@H](C)O[C@H]5[C@H](O)[C@H]3O)[C@H]3COC(=O)[C@H]23)OCO4)cc(OC)c1O [Etoposide]
- IC50 ([2]; Homo sapiens, 72 h, Table 1B, 3 days (from Table 1A), read-out: IC50): < 0.13 µM
- IC50 ([2]; Homo sapiens, 72 h, Table 1D, 3 days (from Table 1C), read-out: IC50): 0.076 µM
- Cell proliferation as % control ([2]; Table 1A, Etoposide 0.13 μM): 37 % control
- Cell proliferation as % control ([2]; Table 1A, Etoposide 0.4 μM): 26 % control
- Cell proliferation as % control ([2]; Table 1A, Etoposide 3.7 μM): 3 % control
- Cell proliferation as % control ([2]; Table 1A, Etoposide 11 μM): 0 % control
- Cell proliferation as % control ([2]; Table 1A, Etoposide 33 μM): 0 % control
- Cell proliferation as % control ([2]; Table 1A, Etoposide 100 μM): 0 % control
- Cell proliferation as % control ([2]; Table 1C, Etoposide 0.004 μM): 97 % control
- Cell proliferation as % control ([2]; Table 1C, Etoposide 0.013 μM): 91 % control
- Cell proliferation as % control ([2]; Table 1C, Etoposide 0.04 μM): 62 % control
- Cell proliferation as % control ([2]; Table 1C, Etoposide 0.37 μM): 35 % control
- Cell proliferation as % control ([2]; Table 1C, Etoposide 1.1 μM): 14 % control
- Cell proliferation as % control ([2]; Table 1C, Etoposide 3.3 μM): 0 % control
- Cell proliferation as % control ([2]; Table 1C, Etoposide 10 μM): 0 % control

SMILES: O=P(NCCCl)(NCCCl)OC1OC(CO)C(O)C(O)C1O [Glufosfamide, α-D-glucosyl-ifosfamide mustard]
- production of chloroacetaldehyde [3]: produces less chloroacetaldehyde
- release of the toxic metabolite acrolein [3]: does not release the toxic metabolite acrolein
- IC50 ([2]; Homo sapiens, 72 h, Table 1B, 3 days (from Table 1A)): 180 µM
- IC50 ([2]; Homo sapiens, 72 h, Table 1D, 3 days (from Table 1C)): 120 µM
- Cell proliferation as % control ([2]; Table 1A, Glufosfamide 0.7 μM): 91 % control
- Cell proliferation as % control ([2]; Table 1A, Glufosfamide 2 μM): 92 % control
- Cell proliferation as % control ([2]; Table 1A, Glufosfamide 6 μM): 94 % control
- Cell proliferation as % control ([2]; Table 1A, Glufosfamide 19 μM): 81 % control
- Cell proliferation as % control ([2]; Table 1A, Glufosfamide 56 μM): 65 % control
- Cell proliferation as % control ([2]; Table 1A, Glufosfamide 167 μM): 65 % control
- Cell proliferation as % control ([2]; Table 1A, Glufosfamide 500 μM): 0 % control
- Cell proliferation as % control ([2]; Table 1C, Glufosfamide 9 μM): 91 % control
- Cell proliferation as % control ([2]; Table 1C, Glufosfamide 19 μM): 79 % control
- Cell proliferation as % control ([2]; Table 1C, Glufosfamide 37.5 μM): 70 % control
- Cell proliferation as % control ([2]; Table 1C, Glufosfamide 75 μM): 64 % control
- Cell proliferation as % control ([2]; Table 1C, Glufosfamide 150 μM): 54 % control
- Cell proliferation as % control ([2]; Table 1C, Glufosfamide 300 μM): 11 % control
- Cell proliferation as % control ([2]; Table 1C, Glufosfamide 600 μM): 0 % control

SMILES: N.N.O=C([O-])C1(C(=O)[O-])CCC1.[Pt+2] [Carboplatin]
- Cell proliferation as % control ([2]; Table 1A, Carboplatin 0.4 μM): 97 % control
- Cell proliferation as % control ([2]; Table 1A, Carboplatin 3.7 μM): 94 % control
- Cell proliferation as % control ([2]; Table 1A, Carboplatin 11 μM): 68 % control
- Cell proliferation as % control ([2]; Table 1A, Carboplatin 33 μM): 46 % control
- Cell proliferation as % control ([2]; Table 1A, Carboplatin 100 μM): 0 % control
- Cell proliferation as % control ([2]; Table 1A, Carboplatin 300 μM): 0 % control
- IC50 ([2]; Table 1B, 3 days (from Table 1A), read-out: IC50): 25 µM
- Cell proliferation as % control ([2]; Table 1C, Carboplatin 0.4 μM): 98 % control
- Cell proliferation as % control ([2]; Table 1C, Carboplatin 3.7 μM): 89 % control
- Cell proliferation as % control ([2]; Table 1C, Carboplatin 11 μM): 74 % control
- Cell proliferation as % control ([2]; Table 1C, Carboplatin 33 μM): 45 % control
- Cell proliferation as % control ([2]; Table 1C, Carboplatin 100 μM): 0 % control
- Cell proliferation as % control ([2]; Table 1C, Carboplatin 300 μM): 0 % control
- IC50 ([2]; Table 1D, 3 days (from Table 1C), read-out: IC50): 25 µM
